Test results published in patent publication US11524048B2, “HMGB1 antagonist treatment of severe sepsis” (THE FEINSTEIN INSTITUTES FOR MEDICAL RESEARCH, priority 2019, dated 2022).
Where “and” joins values, the source holds several entries; their conditions need not be identical. Equal entries are not always repeated. Entries after “also recorded” stand apart in the source; their conditions may differ. Where two headings read alike, the source gives them in different places.

Experiments:
[1] = system: CCI-induced neuropathic pain; experiment: Chronic constriction injury (CCI) of the sciatic nerve neuropathic pain model in rats; format: in vivo, male Wistar rats
Protocol: Twenty-four male Wistar rats were separated into four groups (n=6/group) for treatment as follows [please give details concerning each of the four groups regarding procedure and treatment:
The CCI rats each received surgery. […] Mechanical and thermal sensitivity tests were also performed over time. Hargreaves Thermal Hypersensitivity test was administered to the rats as well as Von Frey mechanical hypersensitivity test.
Rats (male Wistar, 150-180 gm, n=6/group) had CCI surgery. […] Two weeks after surgery, thermal (Hargreaves) or mechanical (von Frey) hypersensitivity was assessed. *: P<0.05 vs. PBS group.
In this experiment, male Wistar rats (n=6/group) had CCI surgery. […] Mechanical allodynia was assessed 5 hours later. N=6-8 rats/group. *: p<0.05) vs. HMGB1 alone. Mechanical and thermal sensitivity tests were also performed over time.

[2] = system: STZ-induced diabetes; experiment: STZ-induced diabetes in mice; format: in vivo; conditions: repetitive K883 500 μg/mouse, vs PBS
Protocol: Mice were administered repetitive administration of […] (500 μg/mouse). […] Repetitive administration of […] was therefore shown to be beneficial in STZ-induced diabetes. […] (*: P<0.05 vs. PBS group. N=6-8 mice per group).

[3] = up to 6 hours, versus P5779
[4] = system: liver ischemia and reperfusion injury; experiment: Warm liver ischemia and reperfusion (I/R) in mice; format: in vivo, male C57BL/6 mice
[5] = system: APAP-induced liver injury; experiment: APAP-induced liver injury model in mice; format: in vivo, male C57BL/6 mice
[6] = system: DAMP-induced TNF secretion (CIRP, SAA, PEDF, HSP 70, HSP90, H2A), human primary macrophages; experiment: DAMPs-induced TNF secretion in human macrophages; format: cell-based; conditions: 16 hours
[7] = Pharmacokinetics after intravenous administration to rats (LC-MS)
[8] = system: rats; experiment: Single-dose tolerability in rats; format: in vivo; conditions: single-dose studies with rats
[9] = system: liver ischemia and reperfusion injury; conditions: cited from earlier work
[10] = system: APAP-induced liver injury; conditions: cited from earlier work
[11] = rat, in vivo
[12] = system: HMGB1-induced TNF release, human primary macrophages; conditions: Yang 2015; cited from earlier work
[13] = system: PAMP-induced TNF release (LPS, PGN, AGE, Poly I:C), human macrophages; conditions: Yang 2015; cited from earlier work

## NC(=O)N(CCC(=O)O)NC(=O)[C@H](CO)NC(=O)[C@H](CO)NC(=O)N(N)Cc1ccccc1 [K883]
[1]; DRGs
  CCI-induced CXCL1 and TNF expression (DRGs): reduces CCI-induced CXCL1 and TNF expression
[1]; Hargreaves / von Frey, K883 800 μg/rat IP once a day for 3 days
  CCI-induced thermal and/or mechanical hypersensitivity (neuropathy): improved CCI-induced thermal and mechanical hypersensitivity; also recorded: effectively reduces peripheral neuropathy; also recorded: ameliorated both mechanical and thermal hypersensitivity; also recorded: ameliorated the thermal hypersensitivity
[1]; spine
  CCI-induced CXCL1, TNF and IL-1β expression (spine): reduces CCI-induced CXCL1, TNF and IL-1β expression
[2]
  hyperglycemia: delays hyperglycemia
  insulitis: reduces insulitis
  weight gain: improves weight gain
[3]
  structural stability in mouse serum: retains structural stability for a longer period of time
[4]; K883, 6 hours after reperfusion, vs vehicle control
  liver H&E staining: inflammation (neutrophil infiltration): reduced inflammation
[4]; mice
  protection against hepatic ischemia/reperfusion injury: protected mice against hepatic ischemia/reperfusion injury
[5]; 50 ug/mouse, vs vehicle controls
  serum ALT: reduced serum ALT
[5]; APAP 350 mg/kg IP, K883 50 μg/mouse IP at 2 and 7 hours post-APAP, 24 hours
  liver necrosis / liver injury (H&E histology): reduces APAP-induced liver injury; also recorded: reduced liver necrosis
[5]; APAP 400 mg/kg, 50 μg/mouse IP once-a-day for 5 days from 2 hours post-APAP, 2 weeks, control group 8
  mice surviving the toxicity of APAP: 14 mice out of 15
[5]; APAP 400 mg/kg, K883 50 μg/mouse IP once-a-day 5 days, 2 weeks
  percent survival post-APAP: improved survival outcome; also recorded: significant improvement
[6]
  TNF secretion induced by other DAMPs: is not inhibited
[7]; IV 1 mg/kg, individual rats, 1 mg/kg
  AUCss: 3776 ng·h/mL and 3808 ng·h/mL and 3751 ng·h/mL
[7]; IV 1 mg/kg, mean of 3 rats
  AUCss, Mean: 3778 ng·h/mL
[7]; rat, in vivo
  half-life in serum (FIG. 23): longer half-life in serum
[8]
  tolerability: well-tolerated

## NC(=O)[C@H](CCC(=O)O)NC(=O)[C@H](CO)NC(=O)[C@H](CO)NC(=O)[C@@H](N)Cc1ccccc1 [P5779]
[9]; P5779 500 μg/mouse IP at time of I/R surgery, 6 hours
  serum levels of ALT and AST / tissue damage: reduced
[9]; P5779, 6 hours after reperfusion, vs vehicle
  liver H&E staining: inflammation (neutrophil infiltration): reduced inflammation
[10]; APAP 350 mg/kg, P5779 50 or 500 μg/mouse IP at 2 and 7 hours, vs scrambled control peptide
  liver necrosis / liver injury (H&E histology): reduced APAP-mediated liver injury; also recorded: reduced liver necrosis
[10]; APAP 400 mg/kg, P5779 500 μg/mouse IP once a day 5 days, 2 weeks, vs scrambled control peptide
  percent survival post-APAP: increased survival; also recorded: significantly improved
[10]; P5779 500 ugs/mouse, comparative data
  serum ALT: significant reductions in ALT
[11]
  half-life in serum (FIG. 23): undetectable
[12]
  HMGB1-induced TNF release from macrophages: inhibit HMGB1-induced TNF release from macrophages in a concentration-dependent manner
[13]
  TNF release in macrophages stimulated by LPS, PGN, Poly I:C, CpG DNA or S100 A12: not suppress TNF release
